IC50, Hill coefficient and voltage-dependent block data for 4 molecules are collected here from paper PMC10569638 (PLOS ONE, 2023).

What all share (type): cell-based
Assay [1] deals with T1, zebrafish αβδ nAChR (δ-type) (Danio rerio, UniProt Q75XT1+Q98880). The assay can be described thus: TEVC inhibition of ACh-elicited nAChR current in Xenopus oocytes, δ-type. The conditions noted are these: for Hill coefficient: inhibition, δ-type. On the procedure: (§1) The bath solution was ND96. […] Oocytes were incubated around 30 sec in the bath solution containing inhibitors of identical concentration. Recordings were performed at room temperature. Holding potential was -80 mV. Vecuronium and rocuronium were purchased from Tokyo Chemical Industry. Pancuronium and d-tubocurarine were purchased from Alomone Labs and FUJIFILM Wako Chemicals, respectively.
(§2) Fitting algorism is identical to that of ACh.

For assay [2], the target named is T2, zebrafish αβδε nAChR (ε-type) (Danio rerio, UniProt A2BG85+Q75XT1+Q98880). Put plainly: TEVC inhibition of ACh-elicited nAChR current in Xenopus oocytes, ε-type. The following applies: for Hill coefficient: inhibition, ε-type. Here is the method: as §1, §2
For assay [3], the target named is T1, zebrafish αβδ nAChR (δ-type). Put plainly: Voltage-dependent block tested by ramp pulses, δ-type. The conditions noted are these: 20 nM pancuronium. Here is the method:
(§3) To examine possible pore blocking activity of pancuronium, the voltage-dependent block was tested by ramp pulses in the presence of pancuronium.
(§4) Fig 10 Voltage-dependent change of the conductance in the presence and absence of pancuronium. (A1), (B1), Representative current traces of the ε-type (A1) and the δ-type (B1). The black and gray traces are in the absence and the presence of 20 nM pancuronium, respectively. Pulse protocols are shown at the bottom. (A2), (B2), Representative I-V curves of the ε-type (A2) and the δ-type (B2). (A3), (B3), G-V curves of the ε-type (A3) and the δ-type (B3). Data were normalized by the conductance at -100 mV. Data are shown as mean ± sem. (N = 9 for all data).

Assay [4] concerns the target zebrafish nAChR containing δ/δ/ε chimeric subunit (Danio rerio, UniProt A2BG85+Q75XT1+Q98880). The assay can be described thus: TEVC inhibition of nAChR current, α, β, δ + δ/δ/ε chimera. The following applies: 100 μM ACh, mean ± sem. On the procedure:
as §1, §2

Assay [5] deals with zebrafish nAChR containing ε/δ/ε chimeric subunit (Danio rerio, UniProt A2BG85+Q75XT1+Q98880). The assay can be described thus: TEVC inhibition of nAChR current, α, β, δ + ε/δ/ε chimera. The following applies: 100 μM ACh, mean ± sem. Here is the method: as §1, §2
Assay [6] deals with zebrafish nAChR containing ε/δ/δ chimeric subunit (Danio rerio, UniProt A2BG85+Q75XT1+Q98880). Put plainly: TEVC inhibition of nAChR current, α, β, δ + ε/δ/δ chimera. The conditions noted are these: mean ± sem. Here is the method: as §1, §2
The target in assay [7] is zebrafish nAChR containing ε/ε/δ chimeric subunit (Danio rerio, UniProt A2BG85+Q75XT1+Q98880). Put plainly: TEVC inhibition of nAChR current, α, β, δ + ε/ε/δ chimera. The conditions noted are these: 100 μM ACh, mean ± sem. On the procedure:
as §1, §2

Assay [8] concerns the target zebrafish nAChR containing δ/ε/ε chimeric subunit (Danio rerio, UniProt A2BG85+Q75XT1+Q98880). Put plainly: TEVC inhibition of nAChR current, α, β, δ + δ/ε/ε chimera. The following applies: mean ± sem. On the procedure:
as §1, §2

The target in assay [9] is zebrafish nAChR containing δ/ε/δ chimeric subunit (Danio rerio, UniProt A2BG85+Q75XT1+Q98880). Put plainly: TEVC inhibition of nAChR current, α, β, δ + δ/ε/δ chimera. The following applies: 100 μM ACh, mean ± sem. On the procedure:
as §1, §2

Assay [10] has as its target T2, zebrafish αβδε nAChR (ε-type). Put plainly: Voltage-dependent block tested by ramp pulses, ε-type. The conditions noted are these: 20 nM pancuronium. Here is the method:
as §3, §4

[11] abbreviates: IC50, δ-type, current elicited by 100 μM ACh, -80 mV, mean ± sem.
The mark [12] stands for this setting: IC50, ε-type, current elicited by 100 μM ACh, -80 mV, mean ± sem.

The structures appear in SMILES notation. Read-outs that look alike come from different tables or passages of the source.

T1 sequence (Q98880 21-456): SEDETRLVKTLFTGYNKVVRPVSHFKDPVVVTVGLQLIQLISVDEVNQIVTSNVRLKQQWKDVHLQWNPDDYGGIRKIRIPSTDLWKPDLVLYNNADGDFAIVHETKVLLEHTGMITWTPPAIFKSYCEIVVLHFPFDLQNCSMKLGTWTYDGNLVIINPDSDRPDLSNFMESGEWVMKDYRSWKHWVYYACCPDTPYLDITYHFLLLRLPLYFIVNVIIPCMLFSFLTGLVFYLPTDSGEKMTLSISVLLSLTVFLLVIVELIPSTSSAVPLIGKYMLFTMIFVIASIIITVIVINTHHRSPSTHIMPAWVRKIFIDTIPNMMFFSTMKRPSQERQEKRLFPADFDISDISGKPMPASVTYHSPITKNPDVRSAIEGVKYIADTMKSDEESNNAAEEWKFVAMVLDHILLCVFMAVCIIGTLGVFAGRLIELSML
T1 sequence (Q75XT1 22-518): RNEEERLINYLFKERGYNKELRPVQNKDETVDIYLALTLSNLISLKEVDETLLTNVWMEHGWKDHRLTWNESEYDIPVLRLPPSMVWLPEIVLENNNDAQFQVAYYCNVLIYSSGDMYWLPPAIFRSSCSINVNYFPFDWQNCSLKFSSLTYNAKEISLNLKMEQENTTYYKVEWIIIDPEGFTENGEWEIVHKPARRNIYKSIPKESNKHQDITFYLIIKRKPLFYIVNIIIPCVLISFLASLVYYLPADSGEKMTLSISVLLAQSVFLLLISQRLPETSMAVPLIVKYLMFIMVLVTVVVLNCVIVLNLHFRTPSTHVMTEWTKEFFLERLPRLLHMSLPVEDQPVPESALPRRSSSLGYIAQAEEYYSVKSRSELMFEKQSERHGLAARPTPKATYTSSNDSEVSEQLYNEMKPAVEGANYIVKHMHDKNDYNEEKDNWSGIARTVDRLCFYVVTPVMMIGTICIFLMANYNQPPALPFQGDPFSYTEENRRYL
T1 sequence (G1FMP8 23-492 partner): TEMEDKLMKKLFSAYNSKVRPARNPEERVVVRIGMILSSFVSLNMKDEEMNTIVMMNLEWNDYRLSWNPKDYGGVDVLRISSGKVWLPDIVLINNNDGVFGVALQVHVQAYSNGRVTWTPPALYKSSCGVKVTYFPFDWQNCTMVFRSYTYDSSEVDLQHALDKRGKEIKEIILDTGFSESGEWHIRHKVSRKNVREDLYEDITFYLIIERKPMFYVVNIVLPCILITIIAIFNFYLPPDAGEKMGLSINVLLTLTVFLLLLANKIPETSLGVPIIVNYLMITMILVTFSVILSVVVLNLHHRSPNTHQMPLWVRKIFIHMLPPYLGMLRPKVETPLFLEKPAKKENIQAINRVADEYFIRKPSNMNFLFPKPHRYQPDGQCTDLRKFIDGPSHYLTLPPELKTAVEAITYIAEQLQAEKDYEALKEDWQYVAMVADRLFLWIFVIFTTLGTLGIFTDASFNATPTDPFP
T2 sequence (Q98880 21-456): as the sequence (Q98880 21-456) above
T2 sequence (Q75XT1 22-518): as the sequence (Q75XT1 22-518) above
T2 sequence (A2BG85 27-517): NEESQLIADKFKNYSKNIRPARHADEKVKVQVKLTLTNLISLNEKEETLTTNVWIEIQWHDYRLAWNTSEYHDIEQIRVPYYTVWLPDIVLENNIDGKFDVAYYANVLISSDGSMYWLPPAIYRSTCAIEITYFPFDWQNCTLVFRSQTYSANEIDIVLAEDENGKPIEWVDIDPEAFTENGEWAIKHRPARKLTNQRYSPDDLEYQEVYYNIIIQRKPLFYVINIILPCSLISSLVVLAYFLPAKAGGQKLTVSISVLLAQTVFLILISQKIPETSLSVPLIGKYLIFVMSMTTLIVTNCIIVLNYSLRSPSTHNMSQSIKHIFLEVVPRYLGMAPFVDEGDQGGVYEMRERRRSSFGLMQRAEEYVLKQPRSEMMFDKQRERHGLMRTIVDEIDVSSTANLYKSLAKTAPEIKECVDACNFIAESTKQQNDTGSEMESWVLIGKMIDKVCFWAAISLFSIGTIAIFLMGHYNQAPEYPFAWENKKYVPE
T2 sequence (G1FMP8 23-492 partner): as the sequence (G1FMP8 23-492 partner) above
zebrafish nAChR containing ε/δ/δ chimeric subunit, sequence (A2BG85 1-234, stated change not applied): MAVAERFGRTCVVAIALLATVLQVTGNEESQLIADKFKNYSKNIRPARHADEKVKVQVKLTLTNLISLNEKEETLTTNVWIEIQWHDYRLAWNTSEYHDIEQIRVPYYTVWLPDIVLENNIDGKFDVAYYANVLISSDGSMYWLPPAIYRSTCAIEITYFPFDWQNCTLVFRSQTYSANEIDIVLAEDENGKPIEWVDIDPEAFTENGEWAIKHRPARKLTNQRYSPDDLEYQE
zebrafish nAChR containing ε/δ/δ chimeric subunit, sequence (Q75XT1 235-518, stated change not applied): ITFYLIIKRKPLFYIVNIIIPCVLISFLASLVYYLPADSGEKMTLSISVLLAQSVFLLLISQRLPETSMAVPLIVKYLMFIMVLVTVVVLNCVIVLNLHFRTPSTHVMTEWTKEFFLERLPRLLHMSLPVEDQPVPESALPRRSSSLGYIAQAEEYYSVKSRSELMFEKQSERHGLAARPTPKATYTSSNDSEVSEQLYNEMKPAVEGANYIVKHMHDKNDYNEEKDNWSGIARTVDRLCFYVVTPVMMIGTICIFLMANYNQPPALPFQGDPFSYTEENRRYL
zebrafish nAChR containing ε/δ/δ chimeric subunit, sequence (Q98880 21-456, stated change not applied): as the sequence (Q98880 21-456) above
zebrafish nAChR containing ε/δ/δ chimeric subunit, sequence (Q75XT1 235-518, stated change not applied): as the sequence (Q75XT1 235-518, stated change not applied) above
zebrafish nAChR containing ε/δ/δ chimeric subunit, sequence (G1FMP8 23-492 partner): as the sequence (G1FMP8 23-492 partner) above
zebrafish nAChR containing δ/ε/ε chimeric subunit, sequence (Q75XT1 1-234, stated change not applied): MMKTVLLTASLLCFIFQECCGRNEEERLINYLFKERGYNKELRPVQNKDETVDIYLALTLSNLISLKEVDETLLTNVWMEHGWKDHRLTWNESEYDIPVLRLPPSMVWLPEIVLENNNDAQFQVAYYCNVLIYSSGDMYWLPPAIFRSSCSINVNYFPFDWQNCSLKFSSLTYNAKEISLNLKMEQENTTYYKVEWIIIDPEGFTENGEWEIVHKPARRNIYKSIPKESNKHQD
zebrafish nAChR containing δ/ε/ε chimeric subunit, sequence (A2BG85 235-517, stated change not applied): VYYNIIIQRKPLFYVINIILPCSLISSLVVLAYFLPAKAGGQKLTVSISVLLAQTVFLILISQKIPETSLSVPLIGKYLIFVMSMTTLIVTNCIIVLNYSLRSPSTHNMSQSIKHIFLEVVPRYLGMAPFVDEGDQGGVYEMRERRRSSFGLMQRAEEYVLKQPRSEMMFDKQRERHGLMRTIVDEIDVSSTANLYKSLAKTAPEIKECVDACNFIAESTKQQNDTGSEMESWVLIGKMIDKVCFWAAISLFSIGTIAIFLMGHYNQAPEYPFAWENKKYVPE
zebrafish nAChR containing δ/ε/ε chimeric subunit, sequence (Q98880 21-456, stated change not applied): as the sequence (Q98880 21-456) above
zebrafish nAChR containing δ/ε/ε chimeric subunit, sequence (Q75XT1 1-234, stated change not applied): as the sequence (Q75XT1 1-234, stated change not applied) above
zebrafish nAChR containing δ/ε/ε chimeric subunit, sequence (G1FMP8 23-492 partner): as the sequence (G1FMP8 23-492 partner) above

Turning to `CC(=O)O[C@H]1C[C@@H]2CC[C@@H]3[C@H](CC[C@@]4(C)[C@H]3C[C@H]([N+]3(C)CCCCC3)[C@@H]4OC(C)=O)[C@@]2(C)C[C@@H]1N1CCCCC1` [vecuronium], the IC50 in [1] (setting [11]) worked out at 0.0007 ± 0.0001 µM; in assay [2] (setting [12]) it was 0.0011 ± 0.0002 µM. For the same molecule, the Hill coefficient worked out at 1.0 ± 0.1 in assay [1] (100 μM ACh, mean ± sem) and 1.3 ± 0.2 in [2] (100 μM ACh, mean ± sem).

As for `C=CC[N+]1([C@H]2C[C@H]3[C@@H]4CC[C@H]5C[C@H](O)[C@@H](N6CCOCC6)C[C@]5(C)[C@H]4CC[C@]3(C)[C@H]2OC(C)=O)CCCC1` [rocuronium], the IC50 in assay [1] (setting [11]) came out at 0.0042 ± 0.0007 µM; in [2] (setting [12]), 0.0047 ± 0.0007 µM. For the same molecule, the Hill coefficient in assay [1] (100 μM ACh, mean ± sem) came to 1.1 ± 0.1; in assay [2] (100 μM ACh, mean ± sem) it was 0.7 ± 0.1.

Regarding `COc1cc2c3cc1Oc1cc(ccc1O)C[C@@H]1c4c(cc(OC)c(O)c4Oc4ccc(cc4)C[C@@H]3N(C)CC2)CC[N+]1(C)C` [d-tubocurarine], the IC50 was found to be 0.123 ± 0.0187 µM in assay [1] and 0.112 ± 0.0082 µM in [2]. Besides, the Hill coefficient came to 1.1 ± 0.1 in assay [1] (100 μM ACh, mean ± sem) and 1.2 ± 0.1 in assay [2] (100 μM ACh, mean ± sem).

In the case of `CC(=O)O[C@H]1C[C@@H]2CC[C@@H]3[C@H](CC[C@@]4(C)[C@H]3C[C@H]([N+]3(C)CCCCC3)[C@@H]4OC(C)=O)[C@@]2(C)C[C@@H]1[N+]1(C)CCCCC1` [pancuronium], the voltage-dependent block result in assay [3] is “voltage dependency of block was again not observed”; in assay [10], “the specific blockage of outward or inward current by pancuronium was not observed”. Moreover, the IC50 in [1] (IC50, δ-type, by 2 μM ACh, mean ± sem) amounted to 0.109 ± 0.0309 µM; in [1] (setting [11]), 0.116 ± 0.0292 µM; in assay [2] (IC50, ε-type, by 2 μM ACh, mean ± sem), 0.0125 ± 0.0019 µM; in assay [2] (setting [12]), 0.0156 ± 0.001 µM. The Hill coefficient in assay [1] (100 μM ACh, mean ± sem) was found to be 1.3 ± 0.4; in assay [1] (by 2 μM ACh, mean ± sem), 1.1 ± 0.2; in [4] it was 1.0 ± 0.1; in assay [5], 0.9 ± 0.1; in assay [6] (100 μM ACh), 1.7 ± 0.5; in [6] (by 2 μM ACh) it was 1.4 ± 0.5. Further, the Hill coefficient in assay [7] is given as 1.8 ± 0.3; in assay [8] (100 μM ACh), 1.0 ± 0.0; in [8] (by 2 μM ACh), 1.8 ± 1.0; in assay [9], 1.0 ± 0.1; in [2] (100 μM ACh, mean ± sem) it was 1.1 ± 0.1; in assay [2] (by 2 μM ACh, mean ± sem), 1.1 ± 0.2.

One may read the IC50 as the concentration that inhibits the measured activity by half. As usually defined, the Hill coefficient is a measure of the steepness of the concentration-response curve.
